Experimental data from US7371755B1 (Biota Scientific Management Pty Ltd., priority 1999, dated 2008).
In brackets after ≈: the same amount, converted by molar mass. Like-named read-outs stand apart in the source and are kept apart here.

How the values were obtained:
[1] = Cytotoxicity in uninfected treated cultures (HRV type 1A assay); format: cell-based, human; conditions: human
Experimental: (§5) The ability of compounds to suppress virus replication and thereby protect cells from HRV-induced CPE was measured using human embryo lung (MRC-5) and human epidermoid carcinoma of the mouth (KB) cells infected with HRV type 1A and HRV type 2, respectively. […] Test compounds were dissolved in 100% anhydrous dimethyl sulfoxide and serially diluted in tissue culture medium. The antiviral potency of the test compounds was assessed by exposing replicate tissue culture wells to a selected dilution series of between 6 and 7 compound concentrations in the presence of sufficient test virus to invoke significant CPE over the course of the assay. Control cells were also exposed to identical concentrations of compounds in the absence of virus or were infected with virus under the same conditions but in the absence of compounds. Compounds of established anti-HRV efficacy (enviroxime, ribavirin and pirodavir) were assayed by identical procedures in parallel to the test compounds. Tissue culture media were identically supplemented to maintain cell viability and support viral growth while suppressing bacterial growth over the period of the assay (supplements: 2% fetal calf serum, 0.01% sodium bicarbonate, 50 g/ml gentamicin, 5 M magnesium chloride, 10 mM of zinc chloride). […] At this time all infected cultures were examined by eye using a light microscope and CPE scored on a scale of 0 (no CPE) to 4 (maximum CPE). Uninfected treated cultures were similarly scored for cytotoxic effects (eg. cell enlargement, granularity, rounding, detachment). […] As an alternative to a CC50 value, cytoxicity in some cases was expressed as the Minimum Toxic Concentration (MTC).
(§6) Vital dye staining to measure cell viability was also used to quantify CPE and cytotoxic effects. […] After the assay had been scored by eye with the aid of a microscope, 100 1 of neutral red (NR) solution (0.34% NR in phosphate buffered saline (PBS)) was added to each well and mixed gently. The assays were returned to the 37° C. incubator for 2 hours to facilitate uptake of the NR by viable cells. The medium/NR mixture was then aspirated from the surface of the cells, which were washed twice with PBS. 0.25 ml of absolute ethanol containing Sorensen's citrate buffer I, was added with gentle mixing and the assays incubated at room temperature in the dark for 30 minutes to dissolve the NR. NR staining of viable cells was then quantified spectrophotometrically by measuring the colour density of the NR solution using a BioTek EL-309 microplate reader at dual wavelengths of 540 and 405 nm. The differences in the two readings were automatically determined to eliminate background errors. EC50 and CC50 values were determined by regression analysis matching compound concentration to NR staining. The XTT method involved use of a solution of XTT (1 mg/ml in culture media) which was added to each well and the plates incubated at 37° C. for 4 hours. XTT metabolism was measured spectrophotometrically using a similar method to that described above except that the dual wavelengths were 450 nm and 650 nm. EC50 and CC50 values were determined by regression analysis using a similar method to that described above.

HRV type 1A = experiment: Inhibition of viral cytopathic effect (CPE), HRV type 1A in MRC-5 cells; format: cell-based, human rhinovirus; conditions: for EC50: Enterovirus
Experimental: as §5, §6

[2] = Cytotoxicity in uninfected treated cultures (HRV type 2 assay); conditions: human
Experimental: (§1) The ability of compounds to suppress virus replication and thereby protect cells from HRV-induced CPE was measured using human embryo lung (MRC-5) and human epidermoid carcinoma of the mouth (KB) cells infected with HRV type 1A and HRV type 2, respectively. Cells grown in 96 well tissue culture plates using conventional mammalian tissue culture medium (such as minimum essential medium) supplemented with fetal calf serum were used in an assay essentially similar to that described by Sidwell and Huffman (Applied Microbiology, 22, 797-801 (1971)). Test compounds were dissolved in 100% anhydrous dimethyl sulfoxide and serially diluted in tissue culture medium. The antiviral potency of the test compounds was assessed by exposing replicate tissue culture wells to a selected dilution series of between 6 and 7 compound concentrations in the presence of sufficient test virus to invoke significant CPE over the course of the assay. Control cells were also exposed to identical concentrations of compounds in the absence of virus or were infected with virus under the same conditions but in the absence of compounds. Compounds of established anti-HRV efficacy (enviroxime, ribavirin and pirodavir) were assayed by identical procedures in parallel to the test compounds. Tissue culture media were identically supplemented to maintain cell viability and support viral growth while suppressing bacterial growth over the period of the assay (supplements: 2% fetal calf serum, 0.01% sodium bicarbonate, […] gentamicin, […] magnesium chloride, […] of zinc chloride). […] At this time all infected cultures were examined by eye using a light microscope and CPE scored on a scale of 0 (no CPE) to 4 (maximum CPE). Uninfected treated cultures were similarly scored for cytotoxic effects (eg. cell enlargement, granularity, rounding, detachment). […] As an alternative to a CC50 value, cytoxicity in some cases was expressed as the Minimum Toxic Concentration (MTC).
(§2) Vital dye staining to measure cell viability was also used to quantify CPE and cytotoxic effects. The vital dye technique was based on either neutral red uptake (Modification of the method of McManus, Appl. Environment. Microbiol., 31, 35-38, 1976) or XXT metabolism. After the assay had been scored by eye with the aid of a microscope, 100 1 of neutral red (NR) solution (0.34% NR in phosphate buffered saline (PBS)) was added to each well and mixed gently. The assays were returned to the 37° C. incubator for 2 hours to facilitate uptake of the NR by viable cells. The medium/NR mixture was then aspirated from the surface of the cells, which were washed twice with PBS. 0.25 ml of absolute ethanol containing Sorensen's citrate buffer I, was added with gentle mixing and the assays incubated at room temperature in the dark for 30 minutes to dissolve the NR. NR staining of viable cells was then quantified spectrophotometrically by measuring the colour density of the NR solution using a BioTek EL-309 microplate reader at dual wavelengths of 540 and 405 nm. The differences in the two readings were automatically determined to eliminate background errors. EC50 and CC50 values were determined by regression analysis matching compound concentration to NR staining. The XTT method involved use of a solution of XTT (1 mg/ml in culture media) which was added to each well and the plates incubated at 37° C. for 4 hours. XTT metabolism was measured spectrophotometrically using a similar method to that described above except that the dual wavelengths were 450 nm and 650 nm. EC50 and CC50 values were determined by regression analysis using a similar method to that described above.
(§3) Selectivity indices (SI) are the CC50 or MTC divided by the EC50.

HRV type 2 = experiment: Inhibition of viral cytopathic effect (CPE), HRV type 2 in KB cells; format: cell-based, human rhinovirus; conditions: for EC50: Enterovirus, read-out: Activity on Rhinovirus Type 2 EC50
Experimental: as §5, §6

[3] = test system: human embryo lung (MRC-5) cells; experiment: Cytotoxicity in uninfected treated cultures (HRV type 1A assay); format: cell-based
Experimental: as §5, §6

[4] = test system: human epidermoid carcinoma of the mouth (KB) cells; experiment: Cytotoxicity in uninfected treated cultures (HRV type 2 assay)
Experimental: as §1, §2, §3

Coxsackie A21 = experiment: Activity against Coxsackie A21 in mammalian cell culture assay; format: cell-based
Experimental: (§4) Activity against Enteroviruses in Mammalian Cell Culture Assays Compounds 50 and 56 of the Invention were Tested Against Other Picornaviruses Using Similar cell based assays to those described in example 30 above and the results are shown in Table 6 below: […]

Enterovirus 70 = experiment: Activity against Enterovirus 70 in mammalian cell culture assay; format: cell-based
Experimental: as §4

mammalian cell culture [5] = experiment: in vitro; format: cell-based
Experimental: as §4

mammalian cell culture [6] = format: cell-based
Experimental: as §4

Echo 21 = experiment: Activity against Echo 21 in mammalian cell culture assay; format: cell-based
Experimental: as §4

in vitro = format: cell-based
Experimental: as §4

[7] = MRC5, HRV type 1A, MRC-5 cells, concentration yielding 50% antiviral efficacy, read-out: Activity on Rhinovirus Type 1A EC50
[8] = HRV type 2, KB cells, concentration yielding 50% antiviral efficacy
[9] = HRV type 1A, MRC-5 cells, concentration yielding 50% antiviral efficacy
[10] = MRC5, read-out: Activity on Rhinovirus Type 1A EC50
[11] = Enterovirus D; read-out: Activity on Enterovirus 70 EC50

Structure (SMILES) | Activity on Rhinovirus Type 2 EC50 (HRV type 2; [8]) [µg/mL] | CC50 [1] [µg/mL] | Activity on Rhinovirus Type 1A CC50 [3] [µg/mL] | Activity on Rhinovirus Type 1A EC50 (HRV type 1A; [9]) [µg/mL] | Activity on Rhinovirus Type 2 CC50 [4] [µg/mL] | also measured
COCc1cc(CCCOc2c(C)cc(-c3ccccc3)cc2C)on1 [Compound 6, 3-(methoxymethyl)-5-[3-[2,6-dimethyl-4-phenylphenoxy]-propyl]-isoxazole] | – | > 50 | – | – | – | EC50 (HRV type 1A; [7]): 0.16 µg/mL (≈ 0.455 µM); CC50 ([2]; KB cells, uninfected): > 5 µg/mL; EC50 (HRV type 2; [8]): < 0.005 µg/mL
CC(=O)NCCOCCOCc1cc(CCCOc2c(C)cc(-c3ccccc3)cc2C)on1 [Compound 19] | – | – | – | – | – | CC50 ([1]; MRC-5 cells, no virus, CC50 or, in some cases, MTC, read-out: Activity on Rhinovirus Type 1A CC50): 5.79 µg/mL (≈ 12.4 µM); EC50 (HRV type 1A; [10]): 0.87 µg/mL (≈ 1.86 µM); CC50 [2]: 2 µg/mL (≈ 4.29 µM); EC50 (HRV type 2; KB): < 0.005 µg/mL
Cc1cc(-c2ccccc2)cc(C)c1OCCCc1cc(COCCOCCOCCOCc2cc(CCCOc3c(C)cc(-c4ccccc4)cc3C)on2)no1 [Compound 32, 1,8-bis-[5-[3-[2,6-dimethyl-4-phenylphenoxy]-propyl]-isoxazolyl-3-methyloxy]-3,6-dioxaoctane] | 0.1 | – | > 50 | 0.32 | > 5 | –
Cc1cc(-c2ccccc2)cc(C)c1OCCCc1cc(COCCOCCOCCOCCOCCOCCOCc2cc(CCCOc3c(C)cc(-c4ccccc4)cc3C)on2)no1 [Compound 34] | 0.09 | – | 10.9 | >50 | > 0.5 | –
Cc1cc(-c2noc(C(F)(F)F)n2)cc(C)c1OCCCc1cc(COCCOCCOCc2cc(CCCOc3c(C)cc(-c4noc(C(F)(F)F)n4)cc3C)on2)no1 [Compound 50, 1,5-bis-[5-[3-[2,6-dimethyl-4-(5-trifluoromethyl-1,2,4-oxadiazolyl)phenoxy]-propyl]-isoxazolyl-3-methyloxy]-3-oxapentane] | 0.02 | – | 10 | 0.06 | 2 | Activity on Coxsackie A21 EC50 (Coxsackie A21): 0.35 µg/mL; Activity on Enterovirus 70 EC50 (Enterovirus 70; Enterovirus 70): >50 µg/mL; Activity on Echo 21 CC50 (mammalian cell culture [5]): 46.3 µg/mL; Activity on Coxsackie A21 CC50 (mammalian cell culture [6]): > 50 µg/mL; Activity on Enterovirus 70 CC50 (mammalian cell culture [6]): > 50 µg/mL; Activity on Echo 21 EC50 (Echo 21): 0.0006 µg/mL
Cc1cc(-c2noc(C(F)(F)F)n2)cc(C)c1OCCCc1cc(COCCOCCOCCOCCOCc2ccc(COCCOCCOCCOCCOCc3cc(CCCOc4c(C)cc(-c5noc(C(F)(F)F)n5)cc4C)on3)cc2)no1 [Compound 56] | 0.09 | – | 10 | 1.8 | 2 | Activity on Coxsackie A21 EC50 (Coxsackie A21): 0.36 µg/mL; Activity on Enterovirus 70 EC50 (Enterovirus 70; Enterovirus 70): 2.88 µg/mL; Activity on Echo 21 CC50 (mammalian cell culture [5]): 7.93 µg/mL; Activity on Coxsackie A21 CC50 (mammalian cell culture [6]): 11.1 µg/mL; Activity on Enterovirus 70 CC50 (mammalian cell culture [6]): > 50 µg/mL; Activity on Echo 21 EC50 (Echo 21): 0.0026 µg/mL
CC(C)S(=O)(=O)n1c(N)nc2ccc(/C(=N/O)c3ccccc3)cc21 [Enviroxime] | – | 0.49 (≈ 1.37 µM) | – | – | – | EC50 (Coxsackie A21): 0.39 µg/mL (≈ 1.09 µM); EC50 (Enterovirus 70; [11]): 0.21 µg/mL (≈ 0.586 µM); EC50 (HRV type 1A; [7]): 0.006 µg/mL (≈ 0.0167 µM); CC50 (in vitro): 0.45 µg/mL (≈ 1.26 µM); EC50 (Echo 21): 0.03 µg/mL (≈ 0.0837 µM)
CCOC(=O)c1ccc(OCCC2CCN(c3ccc(C)nn3)CC2)cc1 [Pirodavir, reference compound] | – | > 10 | – | – | – | EC50 (HRV type 1A; [7]): 0.02 µg/mL (≈ 0.0541 µM); EC50 (HRV type 2; [8]): 0.003 µg/mL (≈ 0.00812 µM)
Cc1cc(CCCOc2c(C)cc(-c3noc(C(F)(F)F)n3)cc2C)on1 [Pleconaril, reference compound] | – | 10 (≈ 26.2 µM) | – | – | – | EC50 (Coxsackie A21): 0.0033 µg/mL (≈ 0.00865 µM); EC50 (Enterovirus 70; Enterovirus D, read-out: Activity on Enterovirus 70 EC50): 0.28 µg/mL (≈ 0.734 µM); EC50 (HRV type 1A; [10]): 0.02 µg/mL (≈ 0.0524 µM); CC50 ([2]; KB cells, uninfected): 0.5 µg/mL (≈ 1.31 µM); EC50 (Echo 21): > 0.00016 µg/mL; EC50 (HRV type 2; KB): 0.05 µg/mL (≈ 0.131 µM)
NC(=O)c1ncn([C@@H]2O[C@H](CO)[C@@H](O)[C@H]2O)n1 [Ribavirin] | – | 98.3 (≈ 403 µM) | – | – | – | EC50 (Coxsackie A21): > 100 µg/mL; EC50 (Enterovirus 70; [11]): > 100 µg/mL; EC50 (Echo 21): 3 µg/mL (≈ 12.3 µM)

Further lines, with some results ahead:

Activity on Rhinovirus Type 2 EC50 (HRV type 2; [8]) [µg/mL] | Structure (SMILES) | CC50 [1] [µg/mL] | Activity on Rhinovirus Type 1A CC50 [3] [µg/mL] | Activity on Rhinovirus Type 1A EC50 (HRV type 1A; [9]) [µg/mL] | Activity on Rhinovirus Type 2 CC50 [4] [µg/mL] | also measured
0.001 | Cc1cc(-c2ccccc2)cc(C)c1OCCCc1cc(COCCOCCOCCO)no1 [Compound 8] | – | 22.7 | 0.59 | 5 | –
0.1 | Cc1cc(-c2ccccc2)cc(C)c1OCCCc1cc(COCCOCCOCCOCCOCCOCCO)no1 [Compound 10] | – | 19 | >50 | 5 | –
0.04 | Cc1cc(-c2noc(C(F)(F)F)n2)cc(C)c1OCCCc1cc(COCCOCCOCCO)no1 [Compound 24] | – | 5.28 | 0.21 | > 1 | –
0.6 | Cc1cc(-c2ccccc2)cc(C)c1OCCCc1cc(COCCOCCOCCOCCNC(=O)Nc2ccc(Cc3ccc(NC(=O)NCCOCCOCCOCCOCc4cc(CCCOc5c(C)cc(-c6ccccc6)cc5C)on4)cc3)cc2)no1 [Compound 48] | – | 30.6 | 3.85 | > 5 | –
